“And” between values parts separate entries of the source, which are not always exact repeats. Identical values can stand only once.
How the values were obtained:
NOD mice = test: Spontaneous diabetes in NOD mice (glucosuria, IPGTT); format: in vivo
Text: Animals: Non-obese diabetic (NOD) mice develop spontaneous autoimmune diabetes and are commonly used as an experimental model for human insulin-dependent diabetes mellitus [Miazaki A., Clin. Exp. Immunol. 60:622 (1998); Harada, M., Exp. Clin. Endocrinol. 89: 251 (1987)].
Six to twelve week old NOD/Ltj female mice were fed standard laboratory animal chow ad libitum and were kept in Specific Pathogen Free (SPF) animal house facility.
(§1) Mice injected with vehicle alone as well as untreated mice served as controls.
Glucosuria analysis: The severity of diabetes was determined according to glucosuria, which was measured using Combi 9 Teststrips (Medi-Test, Macherey-Nagel, Duren, Germany).
Intraperitoneal glucose tolerance tests (IPGTT): Blood samples were obtained from the paraorbital plexus at 0 and 60 minutes after administration of an i.p. glucose injection at a dose of 1 g/kg body weight. Plasma glucose levels were determined using Glucose Analyzer 2 (Beckman Instruments). A glucose level above 15 mmol/liter at the 60 min time point was considered as a positive IPGTT.

INFγ = test: Plasma INFγ level in NOD mice by ELISA; format: in vivo; details: 5 mg/kg i.p., mean of 5 mice
Experimental: as §1
Plasma INFγ: INFγ is associated with the progression of diabetes in NOD mice (Schloot, N. C., Diabetes Metab. Res. Rev. 18:64, 2002; Weiss et al., Cytokine 19:85, 2002; Braz, J., Med. Biol. Res. 35: 1347, 2000).
Plasma INFγ levels in mice were determined by ELISA kit (B.D Bioscience San Diego U.S.A).

islets of Langerhans = test: Histopathology of pancreatic islets (insulitis) in NOD mice; format: in vivo
Text: as §1
Histopathology: Twenty weeks after onset of treatment mice were sacrificed. Pancreatic tissue samples were fixed in 4% buffered formation, embedded in paraffin, sectioned (5 μm thickness) and stained with hematoxylin and eosin. The stained pancreatic sections were observed under a microscope for infiltration of mononuclear lymphocytes into the islets of Langerhans (insulitis). The sections were scored by two uninformed observers as follows: 0, no cell infiltration; 1, cell infiltration in <20% of islet area; 2, cell infiltration in <50% of islet area; cell infiltration in <75% of islet area; and 4, cell infiltration in 90-100% of islet area.

male NOD mice = test: Diabetes induced in male NOD mice by transfer of spleen cells from diabetic female mice; format: in vivo
Experimental: Experimental design—Male NOD mice were irradiated (650 cGy), 24 hrs prior to intravenous injection of spleen cells (25-28×10^6) derived from female diabetic mice.
Intraperitoneal glucose tolerance tests (IPGTT)—see Example 1 above. Blood glucose levels above 140 mg/dl were considered diabetic by testing blood glucose at t-0, 60 min following IP injection of 1 gr/Kg body weight of glucose [Glucometer Elite apparatus (Bayer Diagnostics, ELKART, IN)]. Alternatively, urine samples were taken twice a week from diabetic mice for testing glucose levels. Urine glucose levels above 1000 mg/dl as determined by combi 9 Teststrips (Medi-Test, Macherey-Nagel, Duren, Germany) were considered diabetic;

mice [1] = details: orally at doses of up to 10 mg/kg; cited from earlier work
mice [2] = details: topical administration; cited from earlier work
[3] = system: mouse peritoneal macrophages; details: macrophages activated by LPS and IFNγ; cited from earlier work
human leukocytes = details: cited from earlier work
peripheral receptors CB2 = peripheral receptors CB2 (Homo sapiens, UniProt P34972); details: cited from earlier work
[4] = 20 weeks after onset of treatment, of 54 scored fields
[5] = 5 mg/kg CBD, 20 IP injections, 5 times/week, of 15 mice
[6] = high concentrations (5-24 pg/ml)

Chain of peripheral receptors CB2 (P34972 whole entry): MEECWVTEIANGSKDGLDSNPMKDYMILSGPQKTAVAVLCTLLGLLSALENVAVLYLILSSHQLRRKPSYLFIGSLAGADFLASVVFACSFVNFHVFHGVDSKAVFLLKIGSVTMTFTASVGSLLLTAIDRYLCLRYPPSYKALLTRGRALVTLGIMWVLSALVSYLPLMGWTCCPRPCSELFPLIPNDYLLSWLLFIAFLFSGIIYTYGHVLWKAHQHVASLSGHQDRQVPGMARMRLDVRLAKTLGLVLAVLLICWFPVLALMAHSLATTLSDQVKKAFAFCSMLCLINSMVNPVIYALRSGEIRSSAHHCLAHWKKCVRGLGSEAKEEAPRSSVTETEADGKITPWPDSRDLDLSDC

SMILES: C=C(C)[C@@H]1CCC(C)=C[C@H]1c1c(O)cc(CCCCC)cc1O [CBD, Cannabidiol]
- onset of symptoms in the CBD-treated diabetic mice (NOD mice; compared to untreated and vehicle-treated controls): substantially delayed
- rate of protection (NOD mice; compared with controls): greater than 65%
- Diabetes appearance (weeks), mean and range of weeks of first positive diagnosis (NOD mice; female NOD mice, 5 mg/kg i.p.): 18.4 (15-22) weeks
- Diabetes incidence (%) (NOD mice; female NOD mice, 5 mg/kg i.p., 5 injections per week, 10-23 injections): 21.7%
- No. of diabetic mice (NOD mice; female NOD mice, 5 mg/kg i.p., 5 injections per week, 10-23 injections, of 23 mice): 5
- INFγ (pg/ml) ± SD (INFγ): 43 pg/ml and 43 ± 21*^2 pg/ml
- islets showing destruction (islets of Langerhans; 1/54): 1.9%
- islets showing total infiltration (islets of Langerhans; 6/54): 11%
- protected islets (intact or only partially infiltrated) (islets of Langerhans; 20 week period, 47/54): 87%
- No. of fully destroyed islets (islets of Langerhans; [4]): 1
- No. of intact islets (islets of Langerhans; [4]): 26
- No. of partially infiltrated islets (islets of Langerhans; [4]): 21
- No. of totally infiltrated islets (islets of Langerhans; [4]): 6
- only partially infiltrated pancreatic islets (islets of Langerhans; 21/54): 39%
- intact pancreatic islets (islets of Langerhans; 26/54): 48%
- Total % of diabetic mice (male NOD mice; 5 mg/kg CBD, 20 IP injections, 5 times/week): 53%
- No. of diabetic mice (urine glucose above 1000 mg/dl) (male NOD mice; [5]): 6
- No. of mice w/ latent diabetes (blood glucose above 140 mg/dl 60 minutes following IP glucose injection) (male NOD mice; [5]): 2
- suppression of the appearance of diabetes (male NOD mice; male NOD mice injected with splenocytes from diabetic female NOD mice): about half
- PBQ-induced writhing (mice [1]): inhibited
- TPA-induced erythema (mice [2]): reduce
- nitric oxide (NO) produced [3]: inhibited
- IFNγ synthesis (human leukocytes; [6]): completely blocked
- IL-1 production (human leukocytes; [6]): decreased
- IL-2 secretion (human leukocytes; [6]): did not affect
- TNFα production (human leukocytes; [6]): decreased
- IFNγ production (human leukocytes; low concentrations): increased
- binding to peripheral receptors CB2 (peripheral receptors CB2): does not bind
